# Reference: publication PMC3914206
# Columns and labels:
# Assay in all cases: KiNativ chemical proteomics profiling in HeLa and PC3 cell lysates
# Assay type in all cases: binding
# [1] = molecular target: T1, selected panels of kinases in HeLa and PC3 cell lysates (Homo sapiens, UniProt O94804); conditions: 10 uM
# T1 construct: endogenous in cells; host or cells: HeLa and PC3 cell lysates
# [2] = molecular target: T2, selected panels of kinases in HeLa and PC3 cell lysates (Homo sapiens, UniProt P25098); conditions: 10 uM; proteome HEL; peptide DLk[…]; labeling site Lys2
# T2 construct: endogenous in cells; host or cells: HeLa and PC3 cell lysates
# [3] = molecular target: T3, selected panels of kinases in HeLa and PC3 cell lysates (Homo sapiens, UniProt O75460); conditions: 10 uM; proteome HEL; peptide DLk[…]; labeling site Lys2
# T3 construct: endogenous in cells; host or cells: HeLa and PC3 cell lysates
# [4] = molecular target: T4, selected panels of kinases in HeLa and PC3 cell lysates (Homo sapiens, UniProt Q13164); conditions: for ERK5 target occupancy (KiNativ): 10 μM, HeLa and PC3 cell lysates, only ERK5 exceeded this level; for % Inhibiton, Erk5: 10 uM, proteome HEL, peptide DLk[…], labeling site Lys2
# T4 construct: endogenous in cells; host or cells: HeLa and PC3 cell lysates
# [5] = molecular target: T5, selected panels of kinases in HeLa and PC3 cell lysates (Homo sapiens, UniProt Q6PHR2); conditions: 10 uM; ULK3; peptide EVVAIkCVAK; proteome HEL; labeling site Lys1
# T5 construct: endogenous in cells; host or cells: HeLa and PC3 cell lysates
# [6] = molecular target: T6, selected panels of kinases in HeLa and PC3 cell lysates (Homo sapiens, UniProt Q16512); conditions: 10 uM; PKN1; peptide GHFGk[…]; proteome HEL; labeling site Lys1
# T6 construct: endogenous in cells; host or cells: HeLa and PC3 cell lysates
# [7] = molecular target: T7, selected panels of kinases in HeLa and PC3 cell lysates (Homo sapiens, UniProt P41743); conditions: 10 uM; PKCi; peptide IYAMkVVK; proteome HEL; labeling site Lys1
# T7 construct: endogenous in cells; host or cells: HeLa and PC3 cell lysates
# [8] = molecular target: T8, selected panels of kinases in HeLa and PC3 cell lysates (Homo sapiens, UniProt Q86UE8); conditions: 10 uM; TLK2; peptide YVAVkIHQLNK; proteome PC3; labeling site Lys1
# T8 construct: endogenous in cells; host or cells: HeLa and PC3 cell lysates
# [9] = molecular target: T9, selected panels of kinases in HeLa and PC3 cell lysates (Homo sapiens, UniProt Q9P2K8); conditions: 10 uM
# T9 construct: endogenous in cells; host or cells: HeLa and PC3 cell lysates
# [10] = molecular target: T10, selected panels of kinases in HeLa and PC3 cell lysates (Homo sapiens, UniProt P51617); conditions: 10 uM; proteome PC3; peptide […]k[…]; labeling site Lys2
# T10 construct: endogenous in cells; host or cells: HeLa and PC3 cell lysates
# [11] = molecular target: T11, selected panels of kinases in HeLa and PC3 cell lysates (Homo sapiens, UniProt P45985); conditions: 10 uM, proteome PC3
# T11 construct: endogenous in cells; host or cells: HeLa and PC3 cell lysates
# T11 sequence (P45985 1-399): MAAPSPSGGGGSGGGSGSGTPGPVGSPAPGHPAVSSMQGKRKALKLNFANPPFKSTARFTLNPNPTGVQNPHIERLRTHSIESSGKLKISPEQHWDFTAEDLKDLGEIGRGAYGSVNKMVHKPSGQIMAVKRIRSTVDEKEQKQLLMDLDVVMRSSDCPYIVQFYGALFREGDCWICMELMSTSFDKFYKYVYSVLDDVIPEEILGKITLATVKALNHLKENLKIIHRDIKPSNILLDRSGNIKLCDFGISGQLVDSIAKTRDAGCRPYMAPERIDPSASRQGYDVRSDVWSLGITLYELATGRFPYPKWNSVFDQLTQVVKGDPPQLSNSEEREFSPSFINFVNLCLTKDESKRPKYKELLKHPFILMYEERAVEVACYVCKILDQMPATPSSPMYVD
# [12] = molecular target: T12, selected panels of kinases in HeLa and PC3 cell lysates (Homo sapiens, UniProt Q14012); conditions: 10 uM; proteome HEL; peptide LVAIkCIAK; labeling site Lys1
# T12 construct: endogenous in cells; host or cells: HeLa and PC3 cell lysates
# [13] = molecular target: T13, selected panels of kinases in HeLa and PC3 cell lysates (Homo sapiens, UniProt P41240); conditions: 10 uM, peptide VSDFGLTk[…], labeling site Activation Loop
# T13 construct: endogenous in cells; host or cells: HeLa and PC3 cell lysates
# [14] = molecular target: T14, selected panels of kinases in HeLa and PC3 cell lysates (Homo sapiens, UniProt Q05397); conditions: 10 uM; proteome PC3; peptide […]kTCK; labeling site Lys1
# T14 construct: endogenous in cells; host or cells: HeLa and PC3 cell lysates
# [15] = molecular target: T15, selected panels of kinases in HeLa and PC3 cell lysates (Homo sapiens, UniProt O00418); conditions: 10 uM, peptide YIkYNSNSGFVR, labeling site Protein Kinase Domain
# T15 construct: endogenous in cells; host or cells: HeLa and PC3 cell lysates
# [16] = molecular target: T16, selected panels of kinases in HeLa and PC3 cell lysates (Homo sapiens, UniProt Q58A45); conditions: 10 uM; PAN3; peptide VMDPTkILITGK; proteome HEL
# T16 construct: endogenous in cells; host or cells: HeLa and PC3 cell lysates
# [17] = molecular target: T17, selected panels of kinases in HeLa and PC3 cell lysates (Homo sapiens, UniProt P50750); conditions: 10 uM; proteome PC3; peptide DMkAANVLITR; labeling site Lys2
# T17 construct: endogenous in cells; host or cells: HeLa and PC3 cell lysates
# [18] = molecular target: T18, selected panels of kinases in HeLa and PC3 cell lysates (Homo sapiens, UniProt Q15831); conditions: 10 uM, peptide DIk[…], labeling site Lys2
# T18 construct: endogenous in cells; host or cells: HeLa and PC3 cell lysates
# T18 sequence (Q15831 1-433): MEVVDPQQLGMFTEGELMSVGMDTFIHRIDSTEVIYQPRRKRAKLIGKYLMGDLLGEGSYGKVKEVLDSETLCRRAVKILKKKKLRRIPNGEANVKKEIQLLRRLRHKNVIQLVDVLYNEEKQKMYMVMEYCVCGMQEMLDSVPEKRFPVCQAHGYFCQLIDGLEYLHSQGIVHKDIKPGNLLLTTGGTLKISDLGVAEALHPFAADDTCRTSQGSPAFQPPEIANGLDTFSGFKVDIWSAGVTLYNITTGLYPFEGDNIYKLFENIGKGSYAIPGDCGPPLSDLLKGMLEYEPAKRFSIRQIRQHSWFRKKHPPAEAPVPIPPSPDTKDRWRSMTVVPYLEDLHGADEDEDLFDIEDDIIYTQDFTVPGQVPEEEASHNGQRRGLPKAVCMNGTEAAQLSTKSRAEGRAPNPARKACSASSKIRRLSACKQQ
# [19] = molecular target: T19, selected panels of kinases in HeLa and PC3 cell lysates (Homo sapiens, UniProt P48736); conditions: 10 uM; PIK3CG; peptide KkPLWLEFK; proteome HEL; labeling site ATP
# T19 construct: endogenous in cells; host or cells: HeLa and PC3 cell lysates
# [20] = proteome HEL, peptide DLk[…], labeling site Lys2
# [21] = proteome HEL, peptide […]kVIETK, labeling site Lys1
# [22] = proteome PC3, peptide DLk[…], labeling site Lys2
# [23] = proteome PC3, peptide […]kVIETK, labeling site Lys1
# [24] = proteome HEL, peptide LDGCCYAVkR, labeling site Lys1
# [25] = proteome PC3, peptide LDGCCYAVkR, labeling site Lys1
# [26] = peptide DIkPSNILLDR, labeling site Lys2
# [27] = peptide […]kR, labeling site Lys1
# T9 sequence (Q9P2K8 whole entry): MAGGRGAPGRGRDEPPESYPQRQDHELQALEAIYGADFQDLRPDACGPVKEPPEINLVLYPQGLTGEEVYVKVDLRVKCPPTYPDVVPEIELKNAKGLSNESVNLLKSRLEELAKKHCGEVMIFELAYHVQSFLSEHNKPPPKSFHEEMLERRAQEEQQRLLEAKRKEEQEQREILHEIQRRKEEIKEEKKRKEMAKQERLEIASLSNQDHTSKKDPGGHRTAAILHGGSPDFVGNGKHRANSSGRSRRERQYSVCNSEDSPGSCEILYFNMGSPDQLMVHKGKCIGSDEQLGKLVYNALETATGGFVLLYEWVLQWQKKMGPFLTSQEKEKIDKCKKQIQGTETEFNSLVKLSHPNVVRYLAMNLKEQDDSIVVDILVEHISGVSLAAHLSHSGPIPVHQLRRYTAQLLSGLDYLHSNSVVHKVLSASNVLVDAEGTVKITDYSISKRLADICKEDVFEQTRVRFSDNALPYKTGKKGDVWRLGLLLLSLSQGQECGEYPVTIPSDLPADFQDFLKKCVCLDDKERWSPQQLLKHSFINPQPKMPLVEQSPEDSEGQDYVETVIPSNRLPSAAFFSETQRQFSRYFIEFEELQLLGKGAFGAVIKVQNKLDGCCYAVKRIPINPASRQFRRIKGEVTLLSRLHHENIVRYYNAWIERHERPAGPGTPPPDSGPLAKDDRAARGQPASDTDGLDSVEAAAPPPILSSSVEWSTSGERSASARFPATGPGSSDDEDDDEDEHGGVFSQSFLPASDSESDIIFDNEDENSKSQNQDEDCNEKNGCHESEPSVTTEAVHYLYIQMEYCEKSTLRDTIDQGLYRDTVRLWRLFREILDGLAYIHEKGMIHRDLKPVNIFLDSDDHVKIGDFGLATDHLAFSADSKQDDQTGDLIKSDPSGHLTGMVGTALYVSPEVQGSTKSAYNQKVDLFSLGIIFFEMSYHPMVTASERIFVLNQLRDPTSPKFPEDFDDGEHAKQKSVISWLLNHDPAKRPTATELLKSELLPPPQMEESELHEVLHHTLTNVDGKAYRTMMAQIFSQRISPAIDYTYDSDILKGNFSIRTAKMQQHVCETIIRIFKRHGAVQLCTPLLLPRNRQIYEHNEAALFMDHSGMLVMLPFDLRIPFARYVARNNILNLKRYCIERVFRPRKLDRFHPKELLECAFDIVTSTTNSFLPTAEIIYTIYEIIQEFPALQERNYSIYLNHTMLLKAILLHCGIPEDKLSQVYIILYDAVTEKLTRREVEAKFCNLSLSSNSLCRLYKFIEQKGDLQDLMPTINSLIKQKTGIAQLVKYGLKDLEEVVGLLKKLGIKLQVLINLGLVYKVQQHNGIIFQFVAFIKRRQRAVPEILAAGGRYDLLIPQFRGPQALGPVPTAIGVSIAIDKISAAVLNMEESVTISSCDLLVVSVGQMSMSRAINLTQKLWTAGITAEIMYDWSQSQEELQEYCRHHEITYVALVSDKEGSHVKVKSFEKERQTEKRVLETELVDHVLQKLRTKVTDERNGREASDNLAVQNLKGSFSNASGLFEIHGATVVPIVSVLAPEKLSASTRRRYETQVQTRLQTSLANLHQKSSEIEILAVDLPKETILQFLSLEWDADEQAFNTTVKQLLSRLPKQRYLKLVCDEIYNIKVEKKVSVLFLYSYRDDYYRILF
# T15 sequence (O00418 whole entry, the tested form may be a part): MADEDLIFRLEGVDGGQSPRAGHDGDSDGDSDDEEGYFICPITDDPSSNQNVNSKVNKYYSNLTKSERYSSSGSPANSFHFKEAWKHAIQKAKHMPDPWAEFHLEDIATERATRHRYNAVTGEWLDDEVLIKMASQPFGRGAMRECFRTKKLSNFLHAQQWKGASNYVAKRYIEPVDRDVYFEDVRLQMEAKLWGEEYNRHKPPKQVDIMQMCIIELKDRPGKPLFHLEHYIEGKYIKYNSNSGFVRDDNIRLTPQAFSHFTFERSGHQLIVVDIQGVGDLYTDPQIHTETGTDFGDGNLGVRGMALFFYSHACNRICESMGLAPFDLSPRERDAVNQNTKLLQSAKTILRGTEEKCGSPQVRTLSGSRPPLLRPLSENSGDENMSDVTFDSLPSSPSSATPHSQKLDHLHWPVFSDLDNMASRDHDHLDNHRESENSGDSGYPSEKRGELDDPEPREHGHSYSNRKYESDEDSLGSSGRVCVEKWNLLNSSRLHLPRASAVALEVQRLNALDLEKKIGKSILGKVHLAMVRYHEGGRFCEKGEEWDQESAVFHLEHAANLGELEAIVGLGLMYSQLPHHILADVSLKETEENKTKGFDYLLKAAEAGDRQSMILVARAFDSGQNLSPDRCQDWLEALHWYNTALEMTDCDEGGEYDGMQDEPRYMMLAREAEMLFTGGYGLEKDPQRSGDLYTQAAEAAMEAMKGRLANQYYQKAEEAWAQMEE
# T1 sequence (O94804 whole entry): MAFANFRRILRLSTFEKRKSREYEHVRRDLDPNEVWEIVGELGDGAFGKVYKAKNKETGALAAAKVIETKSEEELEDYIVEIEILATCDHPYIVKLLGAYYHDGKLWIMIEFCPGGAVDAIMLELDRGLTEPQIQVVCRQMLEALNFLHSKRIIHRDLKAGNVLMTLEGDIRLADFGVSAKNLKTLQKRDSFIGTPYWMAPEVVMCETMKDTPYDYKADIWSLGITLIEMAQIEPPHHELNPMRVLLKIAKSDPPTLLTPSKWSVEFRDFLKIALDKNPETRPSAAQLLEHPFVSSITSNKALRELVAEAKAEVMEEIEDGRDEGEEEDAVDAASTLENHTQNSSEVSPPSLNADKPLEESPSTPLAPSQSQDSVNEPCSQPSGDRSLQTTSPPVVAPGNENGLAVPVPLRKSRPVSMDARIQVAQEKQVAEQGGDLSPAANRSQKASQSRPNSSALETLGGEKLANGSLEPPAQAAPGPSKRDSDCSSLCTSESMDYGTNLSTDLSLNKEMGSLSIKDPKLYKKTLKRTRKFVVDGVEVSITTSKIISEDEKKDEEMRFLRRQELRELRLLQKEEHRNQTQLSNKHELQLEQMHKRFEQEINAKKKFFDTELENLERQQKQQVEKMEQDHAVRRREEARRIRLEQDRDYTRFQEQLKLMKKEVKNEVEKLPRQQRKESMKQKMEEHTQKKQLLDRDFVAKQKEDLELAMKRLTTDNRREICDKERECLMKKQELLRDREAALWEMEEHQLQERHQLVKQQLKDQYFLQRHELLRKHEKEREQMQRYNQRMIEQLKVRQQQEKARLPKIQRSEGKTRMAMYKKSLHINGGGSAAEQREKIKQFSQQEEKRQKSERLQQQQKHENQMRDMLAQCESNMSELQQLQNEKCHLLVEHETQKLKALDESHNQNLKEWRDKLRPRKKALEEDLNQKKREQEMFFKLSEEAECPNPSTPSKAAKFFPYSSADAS
# T13 sequence (P41240 whole entry): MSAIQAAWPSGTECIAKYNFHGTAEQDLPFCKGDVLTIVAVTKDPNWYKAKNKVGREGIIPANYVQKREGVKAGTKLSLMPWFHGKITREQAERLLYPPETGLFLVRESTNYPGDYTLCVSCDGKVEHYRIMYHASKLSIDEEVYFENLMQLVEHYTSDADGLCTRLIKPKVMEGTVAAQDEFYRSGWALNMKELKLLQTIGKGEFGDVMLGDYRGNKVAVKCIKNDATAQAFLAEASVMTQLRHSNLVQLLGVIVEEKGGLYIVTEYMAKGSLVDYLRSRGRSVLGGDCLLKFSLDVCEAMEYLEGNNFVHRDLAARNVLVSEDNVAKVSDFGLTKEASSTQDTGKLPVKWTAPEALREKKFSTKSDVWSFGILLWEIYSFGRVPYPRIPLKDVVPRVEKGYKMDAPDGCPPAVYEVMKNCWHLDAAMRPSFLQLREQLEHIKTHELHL
# T4 sequence (Q13164 whole entry): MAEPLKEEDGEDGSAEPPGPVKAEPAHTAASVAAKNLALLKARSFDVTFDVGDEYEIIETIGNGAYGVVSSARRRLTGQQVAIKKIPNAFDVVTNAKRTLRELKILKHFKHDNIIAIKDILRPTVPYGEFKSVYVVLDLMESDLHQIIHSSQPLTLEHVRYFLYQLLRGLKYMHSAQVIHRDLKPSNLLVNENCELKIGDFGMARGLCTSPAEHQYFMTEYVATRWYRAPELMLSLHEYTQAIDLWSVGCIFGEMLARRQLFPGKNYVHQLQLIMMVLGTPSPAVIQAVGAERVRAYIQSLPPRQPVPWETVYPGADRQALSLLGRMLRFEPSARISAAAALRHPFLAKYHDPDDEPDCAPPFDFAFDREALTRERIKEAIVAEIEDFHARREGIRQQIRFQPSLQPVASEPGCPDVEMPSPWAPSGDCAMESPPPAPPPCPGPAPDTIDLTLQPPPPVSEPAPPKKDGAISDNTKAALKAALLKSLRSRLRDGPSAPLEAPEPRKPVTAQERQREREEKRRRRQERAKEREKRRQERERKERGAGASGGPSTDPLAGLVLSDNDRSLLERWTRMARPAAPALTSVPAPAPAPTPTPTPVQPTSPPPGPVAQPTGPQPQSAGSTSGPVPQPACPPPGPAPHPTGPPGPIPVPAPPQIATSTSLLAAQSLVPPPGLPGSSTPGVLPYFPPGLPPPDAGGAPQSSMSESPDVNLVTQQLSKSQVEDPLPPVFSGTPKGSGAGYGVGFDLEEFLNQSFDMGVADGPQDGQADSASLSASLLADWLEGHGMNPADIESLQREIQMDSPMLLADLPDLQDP
# T17 sequence (P50750 whole entry): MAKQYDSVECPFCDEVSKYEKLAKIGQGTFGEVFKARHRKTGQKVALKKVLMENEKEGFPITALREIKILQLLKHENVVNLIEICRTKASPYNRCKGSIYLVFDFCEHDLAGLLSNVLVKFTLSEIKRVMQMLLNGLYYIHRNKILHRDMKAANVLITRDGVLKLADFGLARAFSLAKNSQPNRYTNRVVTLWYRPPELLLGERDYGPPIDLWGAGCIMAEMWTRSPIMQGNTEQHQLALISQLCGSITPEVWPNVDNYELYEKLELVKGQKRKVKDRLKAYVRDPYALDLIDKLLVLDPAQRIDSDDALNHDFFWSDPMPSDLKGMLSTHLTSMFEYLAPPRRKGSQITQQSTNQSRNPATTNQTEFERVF
Structure (SMILES),"% Inhibiton, LOK [1, 20]","% Inhibiton, LOK [1, 21]","% Inhibiton, LOK [1, 22]","% Inhibiton, LOK [1, 23]","% Inhibiton, BARK1 [2]","% Inhibiton, IRE1 [3]",ERK5 target occupancy (KiNativ) [4],"% Inhibiton, Erk5 [4]",% Inhibition ULK3 [5],% Inhibition PKN1 [6],% Inhibition PKCi [7],% Inhibition TLK2 [8],"% Inhibiton, GCN2 [9, 24]","% Inhibiton, GCN2 [9, 22]","% Inhibiton, GCN2 [9, 25]","% Inhibiton, IRAK1 [10]","% Inhibiton, MAP2K4 [11, 26]","% Inhibiton, MAP2K4 [11, 27]","% Inhibiton, CaMK1a [12]","% Inhibiton, CSK ([13]; proteome HEL)",also measured
"COc1cc(C(=O)N2CCC(N3CCN(C)CC3)CC2)ccc1Nc1ncc2c(n1)N(C1CCCC1)c1ccccc1C(=O)N2C [Compound 25, 11-cyclopentyl-2-((2-methoxy-4-(4-(4-methylpiperazin-1-yl)piperidine-1-carbonyl)phenyl)amino)-5-methyl-5H-benzo[e]pyrimido[5,4-b][1,4]diazepin-6(11H)-one]",3.2%,2.1%,8.0%,1.9%,12.0%,-1.8%,higher than 90%,>95%,-3.7%,-2.7%,13.3%,-3.6%,4.5%,-1.6%,-1.5%,1.2%,-7.6%,-9.0%,19.1%,6.5%,"% Inhibiton, CSK ([13]; proteome PC3): -4.8%; % Inhibiton, FAK [14]: 79.4%; % Inhibiton, eEF2K ([15]; proteome HEL): 8.7%; % Inhibiton, eEF2K ([15]; proteome PC3): -9.1%; % Inhibition PAN3 [16]: -1.7%; % Inhibiton, CDK9 [17]: 10.0%; % Inhibiton, LKB1 ([18]; proteome HEL): -0.266%; % Inhibiton, LKB1 ([18]; proteome PC3): -4.1%; % Inhibition PIK3CG [19]: 11.8%"
CCOc1cc(C(=O)N2CCC(N3CCN(C)CC3)CC2)ccc1Nc1ncc2c(n1)N(C1CCCC1)c1ccccc1C(=O)N2C [Compound 26],-13%,24.4%,11.4%,10%,10.9%,-19%,higher than 90%,94.3%,2.5%,15.3%,-2.8%,-11.7%,-6.3%,1.6%,6.4%,-2.9%,-14.4%,-7.3%,36%,14.3%,"% Inhibiton, CSK ([13]; proteome PC3): -6.9%; % Inhibiton, FAK [14]: 48.4%; % Inhibiton, eEF2K ([15]; proteome HEL): 1.2%; % Inhibiton, eEF2K ([15]; proteome PC3): 1.9%; % Inhibition PAN3 [16]: -17.8%; % Inhibiton, CDK9 [17]: 0.7%; % Inhibiton, LKB1 ([18]; proteome HEL): 6.4%; % Inhibiton, LKB1 ([18]; proteome PC3): -0.8%; % Inhibition PIK3CG [19]: 45.3%"
